Series [1] relates to Rattus norvegicus. The experiment in a line: Toxicity in Sprague-Dawley rat assessed as CYP4F4 gene expression in kidney administered as cumulative dose of 15 mg/kg, ip divided into 6 injections for 2 weeks followed by compound washout period of 14 days by RT-PCR analysis relative to control. The conditions noted are these: in vivo, 336 h. On the set-up: dose 15 mg/kg, route intraperitoneal. The class given is organism-based.

For series [2], the system named is H9c2. The experiment in a line: Cytotoxicity against rat H9c2 cells assessed as reduction in ANP mRNA expression at 1 uM after 6 hrs in presence of t-AUCB. The class given is cell-based. The conditions noted are these: h9c2, 6 h.
The subject of series [3] is Rattus norvegicus. As to the kind of experiment: Toxicity in Sprague-Dawley rat assessed as CYP2B1 gene expression in kidney administered as cumulative dose of 15 mg/kg, ip divided into 6 injections for 2 weeks followed by compound washout period of 14 days by RT-PCR analysis relative to control. The series is classed as organism-based. Further details: dose 15 mg/kg, route intraperitoneal; call rule not given here. The conditions noted are these: in vivo, 336 h.

In series [4] the test system is Rattus norvegicus. As to the kind of experiment: Cardiotoxicity in Sprague-Dawley rat assessed as increase in sEH activity in heart cytosol administered as cumulative dose of 15 mg/kg, ip divided into 6 injections for 2 weeks followed by compound washout period of 14 days by RT-PCR analysis relative to control. The conditions noted are these: 336 h. The series is classed as toxicity, organism-based. Further details: dose 15 mg/kg, route intraperitoneal.

Series [5] concerns Rattus norvegicus. The experiment in a line: Cardiotoxicity in Sprague-Dawley rat assessed as increase in beta-MHC gene expression level administered as cumulative dose of 15 mg/kg, ip divided into 6 injections for 2 weeks followed by compound washout period of 14 days by RT-PCR analysis relative to control. The class given is toxicity, organism-based. On the set-up: dose 15 mg/kg, route intraperitoneal. The conditions noted are these: 336 h.

The test system of series [6] is Rattus norvegicus. As to the kind of experiment: Toxicity in Sprague-Dawley rat assessed as sEH gene expression in kidney administered as cumulative dose of 15 mg/kg, ip divided into 6 injections for 2 weeks followed by compound washout period of 14 days by RT-PCR analysis. The series is classed as organism-based. Further details: dose 15 mg/kg, route intraperitoneal. The conditions noted are these: in vivo, 336 h.

Series [7] relates to Rattus norvegicus. The experiment in a line: Cardiotoxicity in Sprague-Dawley rat assessed as increase in IL-6 gene expression level administered as cumulative dose of 15 mg/kg, ip divided into 6 injections for 2 weeks followed by compound washout period of 14 days by RT-PCR analysis relative to control. The series is classed as toxicity, organism-based. On the set-up: dose 15 mg/kg, route intraperitoneal. The conditions noted are these: in vivo, 336 h.

In series [8] the test system is Rattus norvegicus. The experiment in a line: Induction of CYP450-mediated arachidonic acid metabolism in Sprague-Dawley rat heart microsomes assessed as 5,6-EET formation administered as cumulative dose of 15 mg/kg, ip divided into 6 injections for 2 weeks followed by compound washout period of 14 days by LC-ESI-MS analysis relative to control. The conditions noted are these: 336 h. The series is classed as ADME, organism-based. On the set-up: dose 15 mg/kg, route intraperitoneal.

The subject of series [9] is Rattus norvegicus. The experiment in a line: Toxicity in Sprague-Dawley rat assessed as CYP1A1 gene expression in kidney administered as cumulative dose of 15 mg/kg, ip divided into 6 injections for 2 weeks followed by compound washout period of 14 days by RT-PCR analysis relative to control. The series is classed as organism-based. Further details: dose 15 mg/kg, route intraperitoneal. The conditions noted are these: in vivo, 336 h.

The subject of series [10] is Rattus norvegicus. The experiment in a line: Induction of CYP450-mediated arachidonic acid metabolism in Sprague-Dawley rat heart microsomes assessed as 14,15-DHET formation administered as cumulative dose of 15 mg/kg, ip divided into 6 injections for 2 weeks followed by compound washout period of 14 days by LC-ESI-MS analysis relative to control. The conditions noted are these: 336 h. Further details: dose 15 mg/kg, route intraperitoneal. The class given is ADME, organism-based.

Series [11] concerns Rattus norvegicus. As to the kind of experiment: Cardiotoxicity in Sprague-Dawley rat assessed as increase in CYP2C11 gene expression level administered as cumulative dose of 15 mg/kg, ip divided into 6 injections for 2 weeks followed by compound washout period of 14 days by RT-PCR analysis relative to control. The conditions noted are these: in vivo, 336 h. Further details: dose 15 mg/kg, route intraperitoneal. The series is classed as toxicity, organism-based.

Series [12] has as its system H9c2. The experiment in a line: Cytotoxicity against rat H9c2 cells assessed as reduction in BNP mRNA expression at 1 uM after 6 hrs in presence of t-AUCB. The class given is cell-based. The conditions noted are these: h9c2, 6 h.
Series [13] relates to Rattus norvegicus. As to the kind of experiment: Cardiotoxicity in Sprague-Dawley rat assessed as increase in CYP2J3 gene expression level administered as cumulative dose of 15 mg/kg, ip divided into 6 injections for 2 weeks followed by compound washout period of 14 days by RT-PCR analysis relative to control. The series is classed as toxicity, organism-based. Further details: dose 15 mg/kg, route intraperitoneal. The conditions noted are these: in vivo, 336 h.

For series [14], the system named is Rattus norvegicus. As to the kind of experiment: Induction of CYP450-mediated arachidonic acid metabolism in Sprague-Dawley rat heart microsomes assessed as 11,12-EET formation administered as cumulative dose of 15 mg/kg, ip divided into 6 injections for 2 weeks followed by compound washout period of 14 days by LC-ESI-MS analysis relative to control. The class given is ADME, organism-based. The conditions noted are these: 336 h. On the set-up: dose 15 mg/kg, route intraperitoneal.

Series [15] has as its system CYP1B1. As to the kind of experiment: Toxicity in Sprague-Dawley rat assessed as induction of CYP1B1 gene expression in liver administered as cumulative dose of 15 mg/kg, ip divided into 6 injections for 2 weeks followed by compound washout period of 14 days by RT-PCR analysis relative to control. On the set-up: dose 15 mg/kg, route intraperitoneal. The class given is organism-based.

The structures appear in SMILES notation.

What is called fold induction is the signal under treatment as a multiple of the control signal. As to `COc1cccc2c1C(=O)c1c(O)c3c(c(O)c1C2=O)C[C@@](O)(C(=O)CO)C[C@@H]3O[C@H]1C[C@H](N)[C@H](O)[C@H](C)O1` [DOXORUBICIN], the Activity result in [1] was “Non-toxic”; in series [2] it was “Toxic”; in series [3] it was “Non-toxic”; in series [6], “Non-toxic”; in series [8], “Active”; in series [9], “Non-toxic”. Also, the Activity result in series [11] is on record as “Non-toxic”; in series [12], “Toxic”; in series [13], “Non-toxic”; in series [14], “Active”. Moreover, the values for the Ratio in series [4], in series [7] and in [10] were 1.3, 1.8 and 1.3, respectively. For the same molecule, the fold induction at 15 mg/kg in series [5] came out at 2.7. Further, in [15], the fold induction at 336 h amounted to 2.5.

The values above are taken from ChEMBL document CHEMBL3525908, “Chronic doxorubicin cardiotoxicity modulates cardiac cytochrome P450-mediated arachidonic acid metabolism in rats” (Drug Metab Dispos, 2012).
